The record followed here is patent publication US10640520B2, “Boronic acid derivatives” (MERCK PATENT GMBH, priority 2014, dated 2020).

Bounds are passed on as bounds.

One test deals with LMP7 (Homo sapiens, UniProt P20618+P28062). Kind of test: Determination of LMP7 activity (fluorescence intensity assay, Suc-LLVY-AMC). It is filed as biochemical. Particulars: purified human immunoproteasome, incubation for 20 minutes. As for the experimental part:
Determination of LMP7 Activity:
Measurement of LMP7 inhibition is performed in 384 well format based on fluorescence intensity assay.
(§1) Purified human immunoproteasome (0.25 nM) and serial diluted compounds in DMSO (range of concentrations from 30 μM to 15 pM) or controls are incubated for 20 minutes or 120 minutes (long incubation) at 25° C. in assay buffer containing 50 mM Tris pH 7.4, 0.03% SDS, 1 mM EDTA and 1% DMSO. The reaction is initiated by the addition of the fluorogenic peptide substrate, Suc-LLVY-AMC (Bachem 1-1395), at a concentration of 40 μM. After 60 minutes of incubation at 37° C., fluorescence intensity is measured at λex=350 nm and λem=450 nm with a fluorescence reader (Perkin Elmer Envision reader or equivalent).
(§2) Unless indicated otherwise the results are obtained after incubation for 20 minutes.

In the next test the target is Beta5 (Homo sapiens, UniProt P20618+P28074). As to the kind of experiment: Determination of Beta5 activity (fluorescence intensity assay, Suc-LLVY-AMC). It is filed as biochemical. The note with it: incubation for 20 minutes; for IC50: purified human constitutive proteasome. As for the experimental part:
Determination of Beta5 Activity:
Measurement of Beta5 inhibition is performed in 384 well format based on fluorescence intensity assay.
as §1, with “constitutive proteasome (1.25” for “immunoproteasome (0.25”, “[…])” for “pM)”
as §2

As a reminder, the IC50 is the concentration that gives 50% inhibition. Consider `O=C(CCN1CCCCS1(=O)=O)N[C@@H](Cc1coc2ccccc12)B(O)O` [Compound 26, [(1R)-2-(benzofuran-3-yl)-1-[3-(1,1-dioxothiazinan-2-yl)propanoylamino]ethyl]boronic acid], for which, on LMP7, the IC50 was below 0.05 µM. On Beta5, the “Selectivity LMP7 vs Beta5” value is given as “+++ (30 ≤ Selectivity < 50)” and the IC50 fell in the range of 0.05 to 0.5 µM.
On LMP7, `O=C(CCN1CCCC1=O)N[C@@H](Cc1coc2ccccc12)B(O)O` [Compound 19, [(1R)-2-(benzofuran-3-yl)-1-[3-(2-oxopyrrolidin-1-yl)propanoylamino]-ethyl]boronic acid] yielded an IC50 below 0.05 µM. For the same compound, on Beta5, the “Selectivity LMP7 vs Beta5” value is listed as “++++ (50 ≤ Selectivity < 70)” and the IC50 lay in the range of 0.05 to 0.5 µM.
The corresponding values for `O=C(CCN1CCCC1=O)N[C@@H](Cc1ccc2ccccc2c1)B(O)O` [Compound 6, [(1R)-2-(2-naphthyl)-1-[3-(2-oxopyrrolidin-1-yl)propanoylamino]-ethyl]boronic acid] are below 0.05 µM, “++ (10 ≤ Selectivity < 30)” and 0.05 to 0.5 µM.
`O=C(CCN1CCCCC1=O)N[C@@H](Cc1ccc2ccccc2c1)B(O)O` [Compound 7, [(1R)-2-(2-naphthyl)-1-[3-(2-oxo-1-piperidyl)propanoylamino]ethyl]-boronic acid] gave an IC50 on LMP7 below 0.05 µM. On Beta5, the “Selectivity LMP7 vs Beta5” value was “++ (10 ≤ Selectivity < 30)” and the IC50 is 0.05 to 0.5 µM.
As for `O=C(CCN1CCCCC1=O)N[C@@H](Cc1cccc2ccccc12)B(O)O` [Compound 11, [(1R)-2-(1-naphthyl)-1-[3-(2-oxo-1-piperidyl)propanoylamino]ethyl]-boronic acid], the IC50 against LMP7 was 0.05 to 0.5 µM. On Beta5, the “Selectivity LMP7 vs Beta5” value was “+++ (30 ≤ Selectivity < 50)” and the IC50 lay within 0.5 to 5 µM.
Regarding `O=C(CCN1CCCC1=O)N[C@@H](Cc1cccc2ccccc12)B(O)O` [Compound 10, [(1R)-2-(1-naphthyl)-1-[3-(2-oxopyrrolidin-1-yl)propanoylamino]ethyl]-boronic acid], the IC50 against LMP7 lay in the range of 0.05 to 0.5 µM. On Beta5, the “Selectivity LMP7 vs Beta5” value is listed as “++ (10 ≤ Selectivity < 30)” and the IC50 is 0.5 to 5 µM.
In the same order, the values of `O=C(CCN1CC(c2ccccc2)OC1=O)N[C@@H](Cc1coc2ccccc12)B(O)O` (stereo partly drawn) [Compound 29, [(1R)-2-(benzofuran-3-yl)-1-[3-(2-oxo-5-phenyl-oxazolidin-3-yl)propanoylamino]ethyl]boronic acid] are below 0.05 µM, “++ (10 ≤ Selectivity < 30)” and below 0.05 µM.
In the same order, the values of `Cc1ccc(C[C@H](NC(=O)CCN2C(=O)CCC2(C)C)B(O)O)cc1` [Compound 18, [(1R)-1-[3-(2,2-dimethyl-5-oxo-pyrrolidin-1-yl)propanoylamino]-2-(p-tolyl)ethyl]boronic acid] are 0.05 to 0.5 µM, “+++ (30 ≤ Selectivity < 50)” and 0.5 to 5 µM.
In turn, `COCc1ccc(C[C@H](NC(=O)CCN2CCCC2=O)B(O)O)cc1` [Compound 20, [(1R)-2-[4-(methoxymethyl)phenyl]-1-[3-(2-oxopyrrolidin-1-yl)propanoylamino]ethyl]boronic acid] showed an IC50 at LMP7 of 0.05 to 0.5 µM. Moreover, at Beta5, the “Selectivity LMP7 vs Beta5” value is “++ (10 ≤ Selectivity < 30)” and the IC50 was in the range of 0.5 to 5 µM.
The corresponding values for `O=C(CCN1C(=O)CCCC1=O)N[C@@H](Cc1ccccc1)B(O)O` [Compound 5, [(1R)-1-[3-(2,6-dioxo-1-piperidyl)propanoylamino]-2-phenyl-ethyl]-boronic acid] are 0.5 to 5 µM, “+++ (30 ≤ Selectivity < 50)” and above 5 µM.
The corresponding values for `Cc1ccc(C[C@H](NC(=O)CCN2CCC(C)(C)C2=O)B(O)O)cc1` [Compound 17, [(1R)-1-[3-(3,3-dimethyl-2-oxo-pyrrolidin-1-yl)propanoylamino]-2-(p-tolyl)ethyl]boronic acid] are below 0.05 µM, “++ (10 ≤ Selectivity < 30)” and 0.05 to 0.5 µM.
